Patent publication US20070244196A1, “Prostaglandin F2alpha derivative-containing product” (SANTEN PHARMACEUTICAL CO., LTD., priority 2004, published 2007)

Assay: Storage stability test (eye drop in contact with resin containers, 40° C. for 7 days, HPLC)
Format: physicochemical
Details: eye drop (present compound 0.0005%, polysorbate 80 0.05%, pH about 6), containers of propylene/ethylene random copolymer (98.7/1.3, 97.4/2.6, 96.4/3.6) compared with propylene homopolymer container
Experimental: Hereinafter, the present invention will be described in detail through carrying out a storage stability test (40° C. for 7 days). However, such descriptions are disclosed for the purpose of understanding the present invention better and are not meant to limit the scope of the present invention.
As a typical example of a prostaglandin F2α derivative having at least a fluorine atom in its molecule, 16-phenoxy-15-deoxy-15,15-difluoro-17,18,19,20-tetranor-prostaglandin F2α isopropyl ester (hereinafter, referred to as the “present compound” ) was used. The present compound (0.0005%) and polysorbate 80 (0.05%) were dissolved in purified water, and then, commonly used additives such as disodium edetate (q.s.), concentrated glycerin (q.s.), benzalkonium chloride (q.s.) and the like were added thereto to obtain an eye drop with an osmotic pressure of about 1 and a pH of about 6. […]
The eye drop (110 ml) obtained in the section of “(1) Preparation of Eye Drop” was placed in a glass container and the glass container was heated to 40° C. […] The amount of the present compound contained in the glass container was measured by high performance liquid chromatography before and after the storage, and the content of the present compound (average) was calculated taking the content of the present compound at the time of initiation of storage as 100%.

content of the present compound (average), content at the time of initiation of storage taken as 100%: higher
Structure (SMILES): CC(C)OC(=O)CCC/C=C\C[C@@H]1[C@@H](/C=C/C(F)(F)COc2ccccc2)[C@H](O)C[C@@H]1O [present compound, 16-phenoxy-15-deoxy-15,15-difluoro-17,18,19,20-tetranor-prostaglandin F2α isopropyl ester]
